Laboratory results taken from ChEMBL document CHEMBL4837195, “Palladium-mediated synthesis and biological evaluation of C-10b substituted Dihydropyrrolo[1,2-b]isoquinolines as antileishmanial agents” (Eur J Med Chem, 2021).

Key:
[1] = Selectivity index, ratio of CC50 for mouse J774 cells to IC50 for antileishmanial activity against Leishmania donovani MHOM/Br/79/Maria promastigotes by resazurin dye based assay; format: toxicity; conditions: read-out: Selectivity Index
[2] = Selectivity index, ratio of CC50 for mouse J774 cells to IC50 for antileishmanial activity against Leishmania […] MHOM/IN/80/DD8 amastigotes by resazurin dye based assay; format: toxicity; conditions: read-out: Selectivity Index
[3] = Selectivity index, ratio of CC50 for mouse J774 cells to IC50 for antileishmanial activity against Leishmania […] MHOM/IN/80/DD8 promastigotes by resazurin dye based assay; format: toxicity; conditions: read-out: Selectivity Index
Leishmania donovani [4] = assay: Antileishmanial activity against Leishmania donovani MHOM/Br/79/Maria amastigotes infected in mouse J774 cells assessed as reduction in parasites for 48 hrs by resazurin dye based assay; format: functional, organism-based; conditions: J774, 48 h
J774 = assay: Cytotoxicity against mouse J774 cells assessed as reduction in cell viability after 24 hrs by resazurin dye based assay; format: functional
Leishmania amazonensis [5] = assay: Antileishmanial activity against Leishmania […] MHOM/IN/80/DD8 amastigotes infected in mouse J774 cells assessed as reduction in parasites for 48 hrs by resazurin dye based assay; format: functional, organism-based; conditions: MHOM/IN/80/DD8, J774, 48 h
Leishmania donovani [6] = assay: Antileishmanial activity against Leishmania donovani MHOM/Br/79/Maria promastigotes assessed as reduction in parasites for 48 hrs by resazurin dye based assay; format: functional, organism-based
[7] = Selectivity index, ratio of CC50 for mouse J774 cells to IC50 for antileishmanial activity against Leishmania donovani MHOM/Br/79/Maria amastigotes by resazurin dye based assay; format: toxicity; conditions: read-out: Selectivity Index
Leishmania amazonensis [8] = assay: Antileishmanial activity against Leishmania […] MHOM/IN/80/DD8 promastigotes assessed as reduction in parasites for 48 hrs by resazurin dye based assay; format: functional, organism-based; conditions: MHOM/IN/80/DD8, 48 h

With COc1cc2c(cc1OC)C(C)(Cc1ccccc1)c1cccn1C2 (stereo not drawn) the selectivity ratio [1] was > 10.1, the selectivity ratio [2] was > 8.93 and the selectivity ratio [3] was > 17.5. The IC50 (Leishmania donovani [4]) was 55 µM, the CC50 (J774) was ≥ 300 µM and the IC50 (Leishmania amazonensis [5]) was 33.6 µM. The IC50 (Leishmania donovani [6]) was 30.3 µM, the selectivity ratio [7] was > 5.45 and the IC50 (Leishmania amazonensis [8]) was 17.1 µM.

With COc1ccc(CC2(C)c3cc(OC)c(OC)cc3Cn3cccc32)cc1OC (stereo not drawn) the selectivity ratio [1] was > 6.63, the selectivity ratio [2] was > 4.18 and the selectivity ratio [3] was > 77. The IC50 (Leishmania donovani [4]) was 46.3 µM, the CC50 (J774) was ≥ 254 µM and the IC50 (Leishmania amazonensis [5]) was 60.8 µM. The IC50 (Leishmania donovani [6]) was 38.3 µM, the selectivity ratio [7] was > 5.49 and the IC50 (Leishmania amazonensis [8]) was 3.3 µM.

In the case of CC1(CC#N)c2ccc(F)cc2Cn2cccc21 (stereo not drawn), the selectivity ratio [1] is reported as > 2.17, the selectivity ratio [3] is reported as > 4.31 and the CC50 (J774) is reported as ≥ 416 µM. For the same compound, the IC50 (Leishmania donovani [6]) was 192 µM and the IC50 (Leishmania amazonensis [8]) was 96.5 µM.

CCCCCCCCCCCCCCCCOP(=O)([O-])OCC[N+](C)(C)C [MILTEFOSINE] showed a selectivity ratio [1] of 906, a selectivity ratio [2] of 2.85 and a selectivity ratio [3] of 4.43. It also gave an IC50 (Leishmania donovani [4]) of 0.37 µM, a CC50 (J774) of 136 µM and an IC50 (Leishmania amazonensis [5]) of 47.6 µM. For the same compound, the selectivity ratio [7] was 369 and the IC50 (Leishmania amazonensis [8]) was 30.7 µM.

In the case of C=CCC1(C)c2cc(OC)c(OC)cc2Cn2cccc21 (stereo not drawn), the selectivity ratio [1] is reported as > 2.84, the selectivity ratio [2] is reported as > 8.1 and the selectivity ratio [3] is reported as > 15.2. For the same compound, the IC50 (Leishmania donovani [4]) was 256 µM, the CC50 (J774) was ≥ 353 µM and the IC50 (Leishmania amazonensis [5]) was 43.5 µM. For the same compound, the IC50 (Leishmania donovani [6]) was 124 µM, the selectivity ratio [7] was > 1.38 and the IC50 (Leishmania amazonensis [8]) was 23.3 µM.

With CC1(CC#N)c2cc3c(cc2Cn2cccc21)OCO3 (stereo not drawn) the selectivity ratio [1] was > 3.13, the selectivity ratio [3] was > 4.85 and the CC50 (J774) was ≥ 376 µM. The IC50 (Leishmania donovani [6]) was 120 µM and the IC50 (Leishmania amazonensis [8]) was 77.4 µM.

CC1(CC#N)c2ccc(OCc3ccccc3)cc2Cn2cccc21 (stereo not drawn) gave a selectivity ratio [1] of 3.69, a selectivity ratio [3] of 14 and an IC50 (Leishmania donovani [4]) of 44.8 µM. It also gave a CC50 (J774) of 222 µM, an IC50 (Leishmania donovani [6]) of 60.2 µM and a selectivity ratio [7] of 4.97. It also gave an IC50 (Leishmania amazonensis [8]) of 15.8 µM.

In the case of COc1cc2c(cc1OC)C(C)(CC#N)c1cccn1C2 (stereo not drawn), the selectivity ratio [1] is reported as > 1.57, the selectivity ratio [3] is reported as > 1.14 and the CC50 (J774) is reported as ≥ 354 µM. For the same compound, the IC50 (Leishmania donovani [6]) was 226 µM and the IC50 (Leishmania amazonensis [8]) was 309 µM.

Work on COc1cc2c(cc1OC)C(C)(Cc1cc(C(F)(F)F)cc(C(F)(F)F)c1)c1cccn1C2 (stereo not drawn) yielded a selectivity ratio [1] of 0.42, a selectivity ratio [3] of 1.18 and a CC50 (J774) of 46.8 µM. It also gave an IC50 (Leishmania donovani [6]) of 111 µM and an IC50 (Leishmania amazonensis [8]) of 39.6 µM.

With CC1(Cc2ccc([N+](=O)[O-])cc2)c2cc3c(cc2Cn2cccc21)OCO3 (stereo not drawn) the selectivity ratio [1] was > 9.09, the selectivity ratio [2] was > 3.58 and the selectivity ratio [3] was > 34.5. For the same compound, the IC50 (Leishmania donovani [4]) was 68.7 µM, the CC50 (J774) was ≥ 276 µM and the IC50 (Leishmania amazonensis [5]) was 77.1 µM. The IC50 (Leishmania donovani [6]) was 30.4 µM, the selectivity ratio [7] was > 4.02 and the IC50 (Leishmania amazonensis [8]) was 8 µM.

With COc1cc2c(cc1OC)C(Cc1ccc([N+](=O)[O-])cc1)(C(F)(F)F)c1cccn1C2 (stereo not drawn) the selectivity ratio [1] was > 14.1, the selectivity ratio [2] was > 4.08 and the selectivity ratio [3] was > 58.8. For the same compound, the IC50 (Leishmania donovani [4]) was 22.2 µM, the CC50 (J774) was ≥ 231 µM and the IC50 (Leishmania amazonensis [5]) was 56.7 µM. The IC50 (Leishmania donovani [6]) was 16.4 µM, the selectivity ratio [7] was > 10.4 and the IC50 (Leishmania amazonensis [8]) was 3.93 µM.

With COc1ccc(CC2(C)c3cc(OC)c(OC)cc3Cn3cccc32)cc1 (stereo not drawn) the selectivity ratio [1] was > 5.8, the selectivity ratio [2] was > 5.34 and the selectivity ratio [3] was > 10.4. The IC50 (Leishmania donovani [4]) was 45 µM, the CC50 (J774) was ≥ 275 µM and the IC50 (Leishmania amazonensis [5]) was 51.6 µM. For the same compound, the IC50 (Leishmania donovani [6]) was 47.4 µM, the selectivity ratio [7] was > 6.12 and the IC50 (Leishmania amazonensis [8]) was 26.4 µM.

For COc1cc2c(cc1OC)C(C)(Cc1cc3ccc4cccc5ccc(c1)c3c45)c1cccn1C2 (stereo not drawn), the selectivity ratio [1] was > 2.54, the selectivity ratio [3] was > 5.95 and the CC50 (J774) was ≥ 219 µM. The IC50 (Leishmania donovani [6]) was 86 µM and the IC50 (Leishmania amazonensis [8]) was 36.7 µM.

For COc1ccc(OC)c2c1Cn1cccc1C2(C)CC#N (stereo not drawn), the selectivity ratio [3] was > 3.77, the CC50 (J774) was ≥ 354 µM and the IC50 (Leishmania amazonensis [8]) was 93.9 µM.

With CC1(Cc2ccc([N+](=O)[O-])cc2)c2ccccc2Cn2cccc21 (stereo not drawn) the selectivity ratio [1] was > 1.97, the selectivity ratio [3] was > 2 and the CC50 (J774) was ≥ 314 µM. It also gave an IC50 (Leishmania donovani [6]) of 159 µM and an IC50 (Leishmania amazonensis [8]) of 157 µM.

With COc1cc2c(cc1OC)C(C)(C/C=C/c1ccccc1)c1cccn1C2 (stereo not drawn) the selectivity ratio [1] was > 8.27, the selectivity ratio [2] was > 4.02 and the selectivity ratio [3] was > 23. For the same compound, the IC50 (Leishmania donovani [4]) was 16.7 µM, the CC50 (J774) was ≥ 278 µM and the IC50 (Leishmania amazonensis [5]) was 69.3 µM. The IC50 (Leishmania donovani [6]) was 33.7 µM, the selectivity ratio [7] was > 16.6 and the IC50 (Leishmania amazonensis [8]) was 12.2 µM.

With COc1cc2c(cc1OCc1ccccc1)Cn1cccc1C2(C)CC#N (stereo not drawn) the selectivity ratio [1] was 5.68, the selectivity ratio [3] was 7.86 and the CC50 (J774) was 195 µM. The IC50 (Leishmania donovani [6]) was 34.4 µM and the IC50 (Leishmania amazonensis [8]) was 24.8 µM.

With COc1ccc2c(c1OC)Cn1cccc1C2(C)CC#N (stereo not drawn) the selectivity ratio [3] was > 2.07, the CC50 (J774) was ≥ 354 µM and the IC50 (Leishmania amazonensis [8]) was 171 µM.

For COc1cc2c(cc1OC)C(C)(Cc1ccc([N+](=O)[O-])cc1)c1cccn1C2 (stereo not drawn), the selectivity ratio [1] was > 3.31, the selectivity ratio [2] was > 4.7 and the selectivity ratio [3] was > 14.7. For the same compound, the IC50 (Leishmania donovani [4]) was 29.6 µM, the CC50 (J774) was ≥ 264 µM and the IC50 (Leishmania amazonensis [5]) was 56.1 µM. For the same compound, the IC50 (Leishmania donovani [6]) was 79.9 µM, the selectivity ratio [7] was > 8.92 and the IC50 (Leishmania amazonensis [8]) was 18 µM.

With COc1ccc2c(c1)Cn1cccc1C2(C)CC#N (stereo not drawn) the selectivity ratio [1] was > 1.1, the selectivity ratio [3] was > 3.21 and the CC50 (J774) was ≥ 396 µM. The IC50 (Leishmania donovani [6]) was 360 µM and the IC50 (Leishmania amazonensis [8]) was 123 µM.
